Data reported in ChEMBL document CHEMBL3739370, “Synthesis and evaluation of amide, sulfonamide and urea benzisoxazole derivatives as potential atypical antipsychotics” (Medchemcomm, 2015).

Columns and labels:
D(2) dopamine receptor = D(2) dopamine receptor (Rattus norvegicus, UniProt P61169); experiment: Displacement of [3H]spiperone from dopamine D2 receptor in rat striatum
[1] = molecular target: 5-hydroxytryptamine receptor 2A (Rattus norvegicus, UniProt P14842); experiment: Displacement of [3H]ketanserin from 5HT2A receptor in rat brain cortex; assay type: tissue-based
5-hydroxytryptamine receptor 2A, sequence (P14842 whole entry): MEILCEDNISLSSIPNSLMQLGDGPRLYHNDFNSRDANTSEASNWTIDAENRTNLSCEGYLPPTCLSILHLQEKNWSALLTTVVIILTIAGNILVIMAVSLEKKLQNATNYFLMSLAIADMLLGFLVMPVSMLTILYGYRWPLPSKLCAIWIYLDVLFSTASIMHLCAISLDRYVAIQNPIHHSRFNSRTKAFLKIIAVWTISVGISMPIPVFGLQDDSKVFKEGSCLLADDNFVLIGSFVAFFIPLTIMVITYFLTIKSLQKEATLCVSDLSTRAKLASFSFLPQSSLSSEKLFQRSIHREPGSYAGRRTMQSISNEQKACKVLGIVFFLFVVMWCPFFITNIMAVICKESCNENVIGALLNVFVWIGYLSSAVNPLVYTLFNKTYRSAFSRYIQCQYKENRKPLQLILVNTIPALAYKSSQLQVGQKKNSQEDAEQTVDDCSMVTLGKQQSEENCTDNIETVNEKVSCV

D(3) dopamine receptor = D(3) dopamine receptor (Rattus norvegicus, UniProt P19020); experiment: Displacement of [3H]7-OH-DPAT from dopamine D3 receptor in rat olfactory tubercle; assay type: tissue-based
D(3) dopamine receptor, sequence (P19020 whole entry): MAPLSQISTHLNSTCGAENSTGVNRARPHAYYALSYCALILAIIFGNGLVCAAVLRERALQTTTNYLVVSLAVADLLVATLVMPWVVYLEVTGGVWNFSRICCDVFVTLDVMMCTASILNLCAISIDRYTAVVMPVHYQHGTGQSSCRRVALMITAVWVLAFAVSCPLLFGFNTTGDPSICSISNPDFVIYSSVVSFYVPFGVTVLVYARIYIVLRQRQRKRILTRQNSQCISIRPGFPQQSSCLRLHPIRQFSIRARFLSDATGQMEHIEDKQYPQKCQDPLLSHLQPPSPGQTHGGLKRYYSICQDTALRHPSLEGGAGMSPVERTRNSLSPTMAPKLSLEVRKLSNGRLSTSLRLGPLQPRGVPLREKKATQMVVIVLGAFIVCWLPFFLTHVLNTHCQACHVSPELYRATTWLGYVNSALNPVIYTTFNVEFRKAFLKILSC

Histamine H1 receptor = Histamine H1 receptor (Cavia porcellus, UniProt P31389); experiment: Displacement of [3H]mepyramine from histamine H1 receptor in guinea pig cerebellum
Histamine H1 receptor, sequence (P31389 whole entry): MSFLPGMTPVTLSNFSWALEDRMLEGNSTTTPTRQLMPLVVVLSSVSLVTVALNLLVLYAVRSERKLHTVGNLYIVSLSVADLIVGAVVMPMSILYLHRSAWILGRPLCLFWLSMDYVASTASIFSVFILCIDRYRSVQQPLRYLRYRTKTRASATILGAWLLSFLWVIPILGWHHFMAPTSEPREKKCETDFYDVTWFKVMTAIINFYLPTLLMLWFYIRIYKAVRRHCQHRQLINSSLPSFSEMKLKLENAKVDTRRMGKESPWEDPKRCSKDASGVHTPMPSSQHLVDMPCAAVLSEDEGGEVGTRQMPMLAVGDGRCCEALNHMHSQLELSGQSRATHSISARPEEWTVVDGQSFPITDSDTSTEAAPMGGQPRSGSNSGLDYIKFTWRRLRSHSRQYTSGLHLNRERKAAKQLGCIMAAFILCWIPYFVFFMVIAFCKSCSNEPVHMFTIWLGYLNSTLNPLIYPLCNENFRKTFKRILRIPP

[2] = molecular target: T1, Adrenergic receptor alpha-2 (Rattus norvegicus, UniProt P22086+P19328+P22909); experiment: Displacement of [3H]rauwolscine from adrenergic alpha2 receptor in rat brain cortex; assay type: tissue-based
T1 sequence (P22086 whole entry): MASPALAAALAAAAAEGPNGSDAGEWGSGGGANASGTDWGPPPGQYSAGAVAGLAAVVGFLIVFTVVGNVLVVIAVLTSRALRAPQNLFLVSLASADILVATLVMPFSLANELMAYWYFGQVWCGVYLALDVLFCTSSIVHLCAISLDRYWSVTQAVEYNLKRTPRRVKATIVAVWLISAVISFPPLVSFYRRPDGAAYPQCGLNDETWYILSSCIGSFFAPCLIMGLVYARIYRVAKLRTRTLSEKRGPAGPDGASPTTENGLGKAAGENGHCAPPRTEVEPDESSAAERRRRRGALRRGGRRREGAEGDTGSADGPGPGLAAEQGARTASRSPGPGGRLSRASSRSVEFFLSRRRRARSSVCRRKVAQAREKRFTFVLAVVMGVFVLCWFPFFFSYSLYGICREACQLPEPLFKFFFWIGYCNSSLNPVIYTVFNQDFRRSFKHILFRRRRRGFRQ
T1 sequence (P19328 whole entry): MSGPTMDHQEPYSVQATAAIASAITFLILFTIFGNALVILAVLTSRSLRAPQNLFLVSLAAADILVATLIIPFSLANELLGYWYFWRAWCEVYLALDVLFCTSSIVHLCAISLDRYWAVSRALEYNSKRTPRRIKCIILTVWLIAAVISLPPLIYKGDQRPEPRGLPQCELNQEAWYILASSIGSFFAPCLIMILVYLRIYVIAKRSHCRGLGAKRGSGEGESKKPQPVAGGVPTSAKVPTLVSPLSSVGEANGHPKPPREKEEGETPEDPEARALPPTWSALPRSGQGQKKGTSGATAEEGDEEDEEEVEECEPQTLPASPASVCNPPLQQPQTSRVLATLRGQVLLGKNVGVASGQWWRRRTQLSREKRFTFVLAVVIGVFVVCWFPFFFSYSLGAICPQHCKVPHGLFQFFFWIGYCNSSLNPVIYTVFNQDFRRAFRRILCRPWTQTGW
T1 sequence (P22909 whole entry): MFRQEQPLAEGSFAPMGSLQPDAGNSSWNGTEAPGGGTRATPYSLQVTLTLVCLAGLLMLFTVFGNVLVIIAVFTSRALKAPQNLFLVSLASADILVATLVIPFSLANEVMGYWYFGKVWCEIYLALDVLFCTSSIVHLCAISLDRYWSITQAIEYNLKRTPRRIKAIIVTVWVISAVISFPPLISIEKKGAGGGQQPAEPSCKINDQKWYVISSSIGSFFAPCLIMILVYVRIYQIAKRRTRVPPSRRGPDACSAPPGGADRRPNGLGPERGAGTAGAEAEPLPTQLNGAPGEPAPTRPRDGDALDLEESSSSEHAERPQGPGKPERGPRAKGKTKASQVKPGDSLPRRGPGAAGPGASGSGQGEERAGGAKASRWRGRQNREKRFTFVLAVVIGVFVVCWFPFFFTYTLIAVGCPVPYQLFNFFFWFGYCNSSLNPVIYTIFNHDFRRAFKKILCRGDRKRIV

[3] = molecular target: Voltage-gated inwardly rectifying potassium channel KCNH2 (Homo sapiens, UniProt Q12809); experiment: Inhibition of human ERG
Voltage-gated inwardly rectifying potassium channel KCNH2, sequence (Q12809 whole entry): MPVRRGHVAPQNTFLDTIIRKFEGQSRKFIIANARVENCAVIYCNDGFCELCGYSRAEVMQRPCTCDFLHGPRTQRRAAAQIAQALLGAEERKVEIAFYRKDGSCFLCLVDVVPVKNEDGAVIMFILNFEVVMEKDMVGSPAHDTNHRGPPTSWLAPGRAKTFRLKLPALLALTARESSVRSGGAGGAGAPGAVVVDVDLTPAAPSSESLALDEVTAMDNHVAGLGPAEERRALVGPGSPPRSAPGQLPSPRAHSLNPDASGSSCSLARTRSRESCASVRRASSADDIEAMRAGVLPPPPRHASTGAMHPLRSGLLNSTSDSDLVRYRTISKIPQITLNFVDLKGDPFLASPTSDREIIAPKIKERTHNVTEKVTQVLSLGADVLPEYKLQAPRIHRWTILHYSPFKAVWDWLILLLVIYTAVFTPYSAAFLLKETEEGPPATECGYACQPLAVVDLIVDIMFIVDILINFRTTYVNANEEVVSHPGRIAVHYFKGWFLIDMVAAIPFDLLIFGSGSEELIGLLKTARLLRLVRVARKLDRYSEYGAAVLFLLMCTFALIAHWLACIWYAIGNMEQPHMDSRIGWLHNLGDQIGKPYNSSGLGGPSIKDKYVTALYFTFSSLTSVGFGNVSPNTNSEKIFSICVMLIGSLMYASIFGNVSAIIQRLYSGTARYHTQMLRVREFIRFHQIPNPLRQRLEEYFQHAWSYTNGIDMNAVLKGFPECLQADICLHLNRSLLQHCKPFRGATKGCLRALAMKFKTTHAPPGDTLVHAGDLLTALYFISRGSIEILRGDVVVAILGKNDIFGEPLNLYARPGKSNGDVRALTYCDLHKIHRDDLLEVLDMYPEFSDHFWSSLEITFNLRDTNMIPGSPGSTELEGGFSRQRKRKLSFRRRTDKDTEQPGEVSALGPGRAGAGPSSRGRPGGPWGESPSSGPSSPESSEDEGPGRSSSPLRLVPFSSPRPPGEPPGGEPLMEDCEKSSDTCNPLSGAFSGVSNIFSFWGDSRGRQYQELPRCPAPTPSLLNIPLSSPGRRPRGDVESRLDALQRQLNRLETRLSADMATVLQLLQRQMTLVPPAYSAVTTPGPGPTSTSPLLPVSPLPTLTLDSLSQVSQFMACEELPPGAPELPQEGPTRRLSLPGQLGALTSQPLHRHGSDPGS

[4] = molecular target: D(2) dopamine receptor (Homo sapiens) (UniProt P14416); experiment: Agonist activity at dopamine D2 receptor (unknown origin) at 10 uM relative to dopamine
D(2) dopamine receptor (Homo sapiens), sequence (P14416 whole entry): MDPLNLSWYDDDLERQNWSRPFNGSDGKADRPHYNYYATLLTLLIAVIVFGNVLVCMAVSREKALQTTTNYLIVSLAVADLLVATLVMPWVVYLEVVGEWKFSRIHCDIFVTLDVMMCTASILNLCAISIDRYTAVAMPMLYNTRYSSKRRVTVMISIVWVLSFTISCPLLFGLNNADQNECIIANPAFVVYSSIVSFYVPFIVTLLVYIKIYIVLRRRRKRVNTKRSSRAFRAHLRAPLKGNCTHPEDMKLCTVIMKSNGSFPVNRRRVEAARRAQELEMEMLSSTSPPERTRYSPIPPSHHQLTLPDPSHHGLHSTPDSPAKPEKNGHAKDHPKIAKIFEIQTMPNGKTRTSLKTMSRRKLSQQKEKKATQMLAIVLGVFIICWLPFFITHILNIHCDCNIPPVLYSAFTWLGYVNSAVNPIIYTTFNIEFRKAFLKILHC

[5] = molecular target: D(2) dopamine receptor (Homo sapiens) (UniProt P14416); experiment: Antagonist activity at dopamine D2 receptor (unknown origin) at 10 uM
[6] = molecular target: D(3) dopamine receptor (Homo sapiens) (UniProt P35462); experiment: Agonist activity at dopamine D3 receptor (unknown origin) at 10 uM relative to dopamine
D(3) dopamine receptor (Homo sapiens), sequence (P35462 whole entry): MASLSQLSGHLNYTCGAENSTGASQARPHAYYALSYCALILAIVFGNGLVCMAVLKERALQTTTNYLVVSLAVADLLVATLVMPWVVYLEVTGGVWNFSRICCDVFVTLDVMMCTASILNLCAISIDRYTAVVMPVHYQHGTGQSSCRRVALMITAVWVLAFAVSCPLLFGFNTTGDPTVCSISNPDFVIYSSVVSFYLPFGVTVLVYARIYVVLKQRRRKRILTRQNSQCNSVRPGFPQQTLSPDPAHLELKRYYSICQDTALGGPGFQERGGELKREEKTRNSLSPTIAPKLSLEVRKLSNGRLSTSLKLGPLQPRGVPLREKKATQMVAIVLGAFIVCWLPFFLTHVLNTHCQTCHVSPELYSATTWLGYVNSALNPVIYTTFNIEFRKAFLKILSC

[7] = molecular target: T2, 5-hydroxytryptamine receptor 1A (Homo sapiens) (UniProt P08908); experiment: Agonist activity at […] receptor (unknown origin) at 10 uM relative to 5-HT
T2 sequence (whole entry): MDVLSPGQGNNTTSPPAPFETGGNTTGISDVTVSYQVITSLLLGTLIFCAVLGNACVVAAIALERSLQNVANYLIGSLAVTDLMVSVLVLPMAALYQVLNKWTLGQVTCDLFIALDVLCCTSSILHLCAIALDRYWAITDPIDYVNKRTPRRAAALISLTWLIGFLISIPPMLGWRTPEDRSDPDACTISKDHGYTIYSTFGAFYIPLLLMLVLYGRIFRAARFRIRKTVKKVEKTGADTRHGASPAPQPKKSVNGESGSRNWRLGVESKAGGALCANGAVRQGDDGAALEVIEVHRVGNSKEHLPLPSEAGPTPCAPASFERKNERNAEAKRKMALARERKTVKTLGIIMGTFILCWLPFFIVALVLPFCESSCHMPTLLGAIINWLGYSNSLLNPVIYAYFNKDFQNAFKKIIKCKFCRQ

[8] = molecular target: 5-hydroxytryptamine receptor 2A (Homo sapiens) (UniProt P28223); experiment: Agonist activity at […] receptor (unknown origin) at 10 uM relative to 5-HT
5-hydroxytryptamine receptor 2A (Homo sapiens), sequence (P28223 whole entry): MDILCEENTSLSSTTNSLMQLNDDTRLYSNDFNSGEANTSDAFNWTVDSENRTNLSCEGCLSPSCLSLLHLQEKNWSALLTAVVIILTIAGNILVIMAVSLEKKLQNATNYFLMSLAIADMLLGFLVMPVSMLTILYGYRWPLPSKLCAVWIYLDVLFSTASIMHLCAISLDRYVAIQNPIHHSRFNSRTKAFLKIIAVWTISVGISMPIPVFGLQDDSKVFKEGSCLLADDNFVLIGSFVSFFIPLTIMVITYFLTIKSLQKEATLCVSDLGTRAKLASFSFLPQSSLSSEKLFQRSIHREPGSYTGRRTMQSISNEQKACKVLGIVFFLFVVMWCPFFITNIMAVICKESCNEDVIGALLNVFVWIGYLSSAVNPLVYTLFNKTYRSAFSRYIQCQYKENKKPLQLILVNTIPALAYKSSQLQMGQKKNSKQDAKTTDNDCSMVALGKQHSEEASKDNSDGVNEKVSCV

[9] = molecular target: 5-hydroxytryptamine receptor 2A (Homo sapiens) (UniProt P28223); experiment: Antagonist activity at […] receptor (unknown origin) at 10 uM
Mus musculus [10] = experiment: Antipsychotic activity in po dosed mouse assessed as reversal of apomorphine-induced climbing activity; assay type: functional
Mus musculus [11] = experiment: Antipsychotic activity in po dosed mouse assessed as reversal of MK-801-induced hyperactivity; assay type: functional
Mus musculus [12] = experiment: Antipsychotic activity in po dosed mouse assessed as reversal of DOI-induced head twitch activity; assay type: functional
Mus musculus [13] = experiment: Toxicity in po dosed mouse assessed as catalepsy; assay type: organism-based; details: in vivo
Mus musculus [14] = experiment: Selectivity ratio of ED50 for po dosed mouse assessed as catalepsy to ED50 for po dosed mouse assessed as reversal of apomorphine-induced climbing activity
Mus musculus [15] = experiment: Selectivity ratio of ED50 for po dosed mouse assessed as catalepsy to ED50 for po dosed mouse assessed as reversal of MK-801-induced hyperactivity

D(2) dopamine receptor, sequence (P61169 whole entry): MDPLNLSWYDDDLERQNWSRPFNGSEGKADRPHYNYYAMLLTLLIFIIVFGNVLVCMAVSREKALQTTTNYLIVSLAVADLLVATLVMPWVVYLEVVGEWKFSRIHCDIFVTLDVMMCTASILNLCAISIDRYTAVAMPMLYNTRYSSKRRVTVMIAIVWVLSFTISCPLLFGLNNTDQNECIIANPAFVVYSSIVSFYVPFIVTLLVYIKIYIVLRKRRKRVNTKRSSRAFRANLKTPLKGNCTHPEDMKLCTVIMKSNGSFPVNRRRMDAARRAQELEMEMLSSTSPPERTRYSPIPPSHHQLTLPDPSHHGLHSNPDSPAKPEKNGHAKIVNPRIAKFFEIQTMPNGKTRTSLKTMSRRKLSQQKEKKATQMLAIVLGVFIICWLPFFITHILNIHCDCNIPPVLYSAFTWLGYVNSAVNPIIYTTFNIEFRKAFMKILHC

| Compound | Ki (D(2) dopamine receptor) [nM] | Ki [1] [nM] | Ki (D(3) dopamine receptor) [nM] | Ki (Histamine H1 receptor) [nM] | Ki [2] [nM] | IC50 [3] [nM] | Activity [4] [%] | inhibition [5] [%] | Activity [6] [%] | Activity [7] [%] | Activity [8] [%] | inhibition [9] [%] | ED50 (Mus musculus [10]) [mg/kg] | ED50 (Mus musculus [11]) [mg/kg] | ED50 (Mus musculus [12]) [mg/kg] | ED50 (Mus musculus [13]) [mg/kg] | Ratio ED50 (Mus musculus [14]) | Ratio ED50 (Mus musculus [15]) |
| --- | --- | --- | --- | --- | --- | --- | --- | --- | --- | --- | --- | --- | --- | --- | --- | --- | --- | --- |
| O=[N+]([O-])c1ccc(S(=O)(=O)N2CCC(CN3CCC(c4noc5cc(F)ccc45)CC3)CC2)cc1 | 8.7 | 0.79 | 16.6 | 2850 | 967.3 | 3810 | 5.9 | 100 | 3.7 | 8.2 | 6.8 | 100 | 0.4 | 0.71 | 0.57 | 43.53 | 108.8 | 61.3 |
| O=S(=O)(c1ccc(C(F)(F)F)cc1)N1CCC(CN2CCC(c3noc4cc(F)ccc34)CC2)CC1 | 32.6 | 15.7 | 237 | 43.6 | 568.3 | 1390 | – | – | – | – | – | – | – | – | – | – | – | – |
